What all share (assay type): in vivo
The subject of assay [1] is TREM-1. As to the kind of experiment: Rat model of sepsis-induced cardiac dysfunction, intrinsic cardiac function by Millar catheter. More on the design: dpdtmax/Ved / PRSW: unit not given beside the values; FEVG / ESPVR: unit not given here. An excerpt: TREM-1- and TLT-1-derived peptides administration during rat model of sepsis-induced cardiac dysfunction is associated with an increase of intrinsic cardiac function measured by Millar catheter (FEVG, ESPVR, dpdtmax/Ved, PRSW).
(§1) Rats were anaesthetized with isoflurane and a 2 F high-fidelity micro-manometer catheter (SPR-407, Millar Institute, Houston, Tex., USA) was inserted into the LV via the right carotid artery. The Millar catheter was connected to a Harvard Data Acquisition System interfaced with a PC with the AcqKnowledge III software (ACQ 3.2).

Assay [2] relates to TREM-1. As to the kind of experiment: Rat model of myocardial ischemia-reperfusion, cardiac function by conductance catheter. More on the design: PRSW: unit not given beside the values; Emax / ESPVR: unit not given here. The following applies: six weeks after ischemia-reperfusion; 3 mg/kg once a day for 5 days. As for the experimental part:
Adult male Wistar rats were subjected to myocardial ischemia-reperfusion and were randomly grouped (n=10) to receive repeated TREM-1- and TLT-1-derived peptides (3 mg/kg in 0.2 mL NaCl 0.9% once a day for 5 days) or scrambled-LR12 (3 mg/kg in 0.2 mL NaCl 0.9% once a day for 5 days). Six weeks after myocardial injury, cardiac function was investigated under anaesthesia by using a conductance catheter. Emax, ESPVR, and PRSW were higher in animals treated with TREM-1- and TLT-1-derived peptides than in control rats. All p<0.02 [controls versus LR12]).
Animals received same surgery than in permanent ischemia, but with reperfusion of ischemic area by release of the LAD ligation after 60 minutes of ischemia. The same protocol as described above was then applied.
as §1
To investigate the role of TREM-1- and TLT-1-derived peptides in a more relevant model of MI, we performed a transient coronary artery ligation (ischemia-reperfusion model: IR) in rats. After randomisation, animals were then imaged under anaesthesia (micro-TEP) and administered with TREM-1- and TLT-1-derived peptides (3 mg/kg daily for 5 days i.p.) or LR12-scrambled peptide. Imaging was then repeated at 6 weeks before we studied cardiac function by using a conductance catheter (Millar).

For assay [3], the target named is T1, TREM-1 (Mus musculus, UniProt Q9JKE2).
T1 construct: endogenous in cells; host or cells: living mice (C57BL, Balb/c, ApoE-/-), in vivo
T1 sequence (Q9JKE2 21-230): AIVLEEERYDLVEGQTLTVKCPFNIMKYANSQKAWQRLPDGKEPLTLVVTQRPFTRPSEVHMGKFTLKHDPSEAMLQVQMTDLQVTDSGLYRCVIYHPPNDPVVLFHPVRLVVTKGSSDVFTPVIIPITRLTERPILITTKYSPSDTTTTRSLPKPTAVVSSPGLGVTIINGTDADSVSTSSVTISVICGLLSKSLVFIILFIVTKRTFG
As to the kind of experiment: Mouse model of myocardial infarction, survival. The following applies: 100 μg daily for 5 days i.p. As for the experimental part:
Adult male Balb/c mice (20-23 g) were subjected to myocardial ischemia and were randomly grouped (n=10-15 per group) to receive repeated TREM-1- and TLT-1-derived peptides (100 μg in 0.2 mL NaCl 0.9% once a day for 5 days), scrambled-LR12 (100 μg in 0.2 mL NaCl 0.9% once a day for 5 days), or 10 μg anti-TREM-1 mAb in 0.2 mL NaCl 0.9% i.p. injections. Survival was monitored over 1 wk and analyzed by Log Rank test. (There were no deaths after the 5th day). Data are representative of at least 15 different experiments.
All procedures were performed on mice male C57BL/C ranging in age from 6-8 weeks. Mice were anesthetized by an intraperitoneal injection of xylazine (60 mg/kg) and fixed in supine position. The trachea was intubated and ventilated (the tidal volume was 200 μl/25 g and the respiratory rate was 120 breaths/min). After a left thoracotomy, the left coronary artery was identified and ligated with an 8-0 prolene surgical suture at 1.0 mm distal from tip of the left auricle. LAD occlusion was confirmed by a change in myocardial color from red to white in the ischemia area (Left ventricle). The chest was closed and the skin was sutured with 6-0 silk. […]
Mice were monitored after surgery for mortality. Mice were randomized to receive or not peptides (daily ip injection for 5 days, 5 mg/kg) and monitored for survival. […]

For the substance “GLYQCV (listed as Homo sapiens) [TREM1-LP6-3]”, in the assay with TREM-1 [1], the ESPVR is 2.9 ± 0.4, the FEVG was 78.6 ± 7.4, the PRSW is 139 ± 8 and the dpdtmax/Ved was 163 ± 10. In the assay with TREM-1 [2], this substance showed an ESPVR of 2.3 ± 0.4, an Emax of 5.8 ± 0.5 and a PRSW of 99 ± 8.

In the assay on TREM-1 [1], “ELMEGGQECADY (synthetic peptide scramble) [TLT-1-LR12scr, reference compound]” yielded an ESPVR of 1.6 ± 0.3, an FEVG of 39.9 ± 4.9, a PRSW of 88 ± 8 and a dpdtmax/Ved of 61 ± 12. Moreover, in the assay on TREM-1 [2], the ESPVR is given as 1.1 ± 0.3, the Emax is reported as 2.7 ± 0.3 and the PRSW stood at 65 ± 8. The mice died with TREM-1 [3] was 40%.

In the assay with TREM-1 [1], “EDAGEY (listed as Homo sapiens) [TLT1-LR6-2]” had an ESPVR of 2.3 ± 0.2, an FEVG of 75 ± 5.9, a PRSW of 139 ± 10 and a dpdtmax/Ved of 155 ± 12. In the assay on TREM-1 [2], the ESPVR was 1.8 ± 0.1, the Emax was determined as 6.5 ± 0.9 and the PRSW was found to be 99 ± 8.

With “EDSGLY (listed as Homo sapiens) [TREM1-LP6-2]”, in the assay on TREM-1 [1], the ESPVR worked out at 2.7 ± 0.1, the FEVG is given as 79.4 ± 9.9, the PRSW is listed as 144 ± 6 and the dpdtmax/Ved was determined as 155 ± 15. In the assay on TREM-1 [2], the ESPVR is 2.2 ± 0.1, the Emax was found to be 6 ± 0.6 and the PRSW was 104 ± 5.

In the assay with TREM-1 [1], “LQEEDA (listed as Homo sapiens) [TLT1-LR6-1]” gave an ESPVR of 2.9 ± 0.3, an FEVG of 79.6 ± 7.4, a PRSW of 142 ± 8 and a dpdtmax/Ved of 160 ± 15. In the assay with TREM-1 [2], the ESPVR stood at 2.4 ± 0.4, the Emax is 4.5 ± 0.6 and the PRSW is given as 102 ± 6.

Take “LQVEDSGLYQCVIYQPP (listed as Homo sapiens) [TREM1-LP17]”: in the assay on TREM-1 [1], the ESPVR is reported as 2.7 ± 0.3, the FEVG is recorded as 75.9 ± 8.9, the PRSW is listed as 150 + 8 and the dpdtmax/Ved is given as 156 ± 11. For the same substance, in the assay on TREM-1 [2], the ESPVR was 2.2 ± 0.3, the Emax is 5.9 ± 0.8 and the PRSW is given as 110 ± 5.

In the assay with TREM-1 [1], “GEYGCM (listed as Homo sapiens) [TLT-1LR6-3]” registered an ESPVR of 2.2 ± 0.2, an FEVG of 78 ± 8.7, a PRSW of 149 ± 6 and a dpdtmax/Ved of 157 ± 10. In addition, in the assay on TREM-1 [2], the ESPVR came to 1.7 ± 0.3, the Emax is recorded as 5.2 ± 0.4 and the PRSW was found to be 109 ± 6.

In the case of “LQVEDS (listed as Homo sapiens) [TREM1-LP6-1]”, in the assay on TREM-1 [1], the ESPVR came to 2.5 ± 0.3, the FEVG stood at 76 ± 5.9, the PRSW is reported as 145 ± 6 and the dpdtmax/Ved amounted to 150 ± 20. In the assay on TREM-1 [2], this substance showed an ESPVR of 2 ± 0.3, an Emax of 5.5 ± 0.4 and a PRSW of 105 ± 6.

In the assay on TREM-1 [1], “LQEEDAGEYGCMVDGAR (listed as Homo sapiens) [TLT1-LR17]” registered an ESPVR of 2.5 ± 0.3, an FEVG of 75.6 ± 7.2, a PRSW of 145 ± 6 and a dpdtmax/Ved of 150 ± 12. In the assay with TREM-1 [2], this substance displayed an ESPVR of 2 ± 0.2, an Emax of 5.1 ± 0.6 and a PRSW of 105 ± 6.

Take “LQVEDSGLYQCV (listed as Homo sapiens) [TREM1-LP12]”: in the assay on TREM-1 [1], the ESPVR came to 2.8 ± 0.2, the FEVG was 72 ± 9.4, the PRSW was 139 ± 6 and the dpdtmax/Ved stood at 158 ± 18. In addition, in the assay on TREM-1 [2], the ESPVR was determined as 2.3 ± 0.4, the Emax was found to be 4.5 ± 0.4 and the PRSW was determined as 99 ± 4.

(Values after patent US9657081B2, “Inhibiting peptides derived from triggering receptor expressed on myeloid cells-1 (TREM-1) TREM-like transcript 1 (TLT-1) for treatment of cardiovascular diseases” (INSERM (Institut National de la Sante et de la Recherche …, priority 2013, dated 2017).)
